Assay results taken from patent publication US8629159B2, “Thiazolidinedione analogues” (Metabolic Solutions Development Company, LLC, priority 2006, dated 2014).
Marks after values point to notes of the source that are not given here.

Tests used:
[1] = tested on: Male salt-sensitive Dahl rats; assay: Blood pressure (systolic and diastolic) and heart rate by telemetry in hypertensive Dahl rats; type: in vivo, rat; conditions: 24 hour average
Protocol: Direct blood pressure (systolic and diastolic) and heart rate was also measured by telemetry (Tables F—H and FIG. 4). Data in Tables F—H and depicted in FIGS. 4A-4C are 24 hour averages for the last 4 days before the start of the daily oral gavage of treatments (−4, −3, −2, −1) and for the days 1-17 during the treatments shown.

[2] = tested on: Male salt-sensitive Dahl rats; assay: Fasting free fatty acids (FFA) and adiponectin in treated Dahl rats; type: in vivo, rat; conditions: 3 weeks treatment; 40 mg/kg compound 1, 20 mg/kg rosiglitazone
Protocol: Doses of these compounds were chosen to produce the same metabolic effects in terms of reduction of triglycerides and elevation of adiponectin (Table E). Direct blood pressure (systolic and diastolic) and heart rate was also measured by telemetry (Tables F—H and FIG. 4).

[3] = day 1 of treatment, rosiglitazone 20 mg/kg, compound 1 40 mg/kg
[4] = day 2 of treatment, rosiglitazone 20 mg/kg, compound 1 40 mg/kg
[5] = day 3 of treatment, rosiglitazone 20 mg/kg, compound 1 40 mg/kg
[6] = day 4 of treatment, rosiglitazone 20 mg/kg, compound 1 40 mg/kg
[7] = day 5 of treatment, rosiglitazone 20 mg/kg, compound 1 40 mg/kg
[8] = day 6 of treatment, rosiglitazone 20 mg/kg, compound 1 40 mg/kg
[9] = day 7 of treatment, rosiglitazone 20 mg/kg, compound 1 40 mg/kg
[10] = day 8 of treatment, rosiglitazone 20 mg/kg, compound 1 40 mg/kg
[11] = day 9 of treatment, rosiglitazone 20 mg/kg, compound 1 40 mg/kg
[12] = day 10 of treatment, rosiglitazone 20 mg/kg, compound 1 40 mg/kg
[13] = day 11 of treatment, rosiglitazone 20 mg/kg, compound 1 40 mg/kg
[14] = day 12 of treatment, rosiglitazone 20 mg/kg, compound 1 40 mg/kg
[15] = day 13 of treatment, rosiglitazone 20 mg/kg, compound 1 40 mg/kg
[16] = day 14 of treatment, rosiglitazone 20 mg/kg, compound 1 40 mg/kg
[17] = day 15 of treatment, rosiglitazone 20 mg/kg, compound 1 40 mg/kg
[18] = day 16 of treatment, rosiglitazone 20 mg/kg, compound 1 40 mg/kg
[19] = day 17 of treatment, rosiglitazone 20 mg/kg, compound 1 40 mg/kg
[20] = day −1, before start of treatment
[21] = day −2, before start of treatment
[22] = day −3, before start of treatment
[23] = day −4, before start of treatment

CN(CCOc1ccc(CC2SC(=O)NC2=O)cc1)c1ccccn1 (centres unmarked) [Rosiglitazone, reference compound]
Diastolic blood pressure measured by telemetry, Mean [1, 3]: 119 | Heart rate measured by telemetry, Mean [1, 3]: 407 bpm | Diastolic blood pressure measured by telemetry, Mean [1, 4]: 121 | Heart rate measured by telemetry, Mean [1, 4]: 402 bpm | Systolic blood pressure measured by telemetry, Mean [1, 4]: 172 | Diastolic blood pressure measured by telemetry, Mean [1, 5]: 123 | Heart rate measured by telemetry, Mean [1, 5]: 405 bpm | Systolic blood pressure measured by telemetry, Mean [1, 5]: 175 | Diastolic blood pressure measured by telemetry, Mean [1, 6]: 124 | Heart rate measured by telemetry, Mean [1, 6]: 399 bpm | Systolic blood pressure measured by telemetry, Mean [1, 6]: 177 | Diastolic blood pressure measured by telemetry, Mean [1, 7]: 126 | Heart rate measured by telemetry, Mean [1, 7]: 398 bpm | Systolic blood pressure measured by telemetry, Mean [1, 7]: 179 | Diastolic blood pressure measured by telemetry, Mean [1, 8]: 126 | Heart rate measured by telemetry, Mean [1, 8]: 398 bpm | Systolic blood pressure measured by telemetry, Mean [1, 8]: 179 | Diastolic blood pressure measured by telemetry, Mean [1, 9]: 131 | Heart rate measured by telemetry, Mean [1, 9]: 393 bpm | Systolic blood pressure measured by telemetry, Mean [1, 9]: 184 | Diastolic blood pressure measured by telemetry, Mean [1, 10]: 135 | Heart rate measured by telemetry, Mean [1, 10]: 401 bpm | Systolic blood pressure measured by telemetry, Mean [1, 10]: 188 | Diastolic blood pressure measured by telemetry, Mean [1, 11]: 136 | Heart rate measured by telemetry, Mean [1, 11]: 398 bpm | Systolic blood pressure measured by telemetry, Mean [1, 11]: 190 | Heart rate measured by telemetry, Mean [1, 12]: 398 bpm | Systolic blood pressure measured by telemetry, Mean [1, 12]: 192 | Heart rate measured by telemetry, Mean [1, 13]: 399 bpm | Systolic blood pressure measured by telemetry, Mean [1, 13]: 194 | Heart rate measured by telemetry, Mean [1, 14]: 399 bpm | Systolic blood pressure measured by telemetry, Mean [1, 14]: 196 | Heart rate measured by telemetry, Mean [1, 15]: 395 bpm | Systolic blood pressure measured by telemetry, Mean [1, 15]: 196 | Heart rate measured by telemetry, Mean [1, 16]: 393 bpm | Systolic blood pressure measured by telemetry, Mean [1, 16]: 198 | Heart rate measured by telemetry, Mean [1, 17]: 398 bpm | Systolic blood pressure measured by telemetry, Mean [1, 17]: 202 | Heart rate measured by telemetry, Mean [1, 18]: 401 bpm | Systolic blood pressure measured by telemetry, Mean [1, 18]: 204 | Heart rate measured by telemetry, Mean [1, 19]: 402 bpm | Systolic blood pressure measured by telemetry, Mean [1, 19]: 204 | Diastolic blood pressure measured by telemetry, Mean [1, 20]: 124 | Heart rate measured by telemetry, Mean [1, 20]: 395 bpm | Systolic blood pressure measured by telemetry, Mean [1, 20]: 173 | Diastolic blood pressure measured by telemetry, Mean [1, 21]: 127 | Heart rate measured by telemetry, Mean [1, 21]: 394 bpm | Systolic blood pressure measured by telemetry, Mean [1, 21]: 176 | Diastolic blood pressure measured by telemetry, Mean [1, 22]: 124 | Heart rate measured by telemetry, Mean [1, 22]: 400 bpm | Systolic blood pressure measured by telemetry, Mean [1, 22]: 171 | Diastolic blood pressure measured by telemetry, Mean [1, 23]: 124 | Heart rate measured by telemetry, Mean [1, 23]: 403 bpm | Systolic blood pressure measured by telemetry, Mean [1, 23]: 174 | Adiponectin [2]: 36* | FFA [2]: 0.77*
